Assay results from patent US20110178396A1, “Nicotinamide Derivatives” (CRC FOR BIOMEDICAL IMAGING DEVELOPMENT LTD., priority 2008, published 2011).
Each block holds one compound with its values, some of them ahead of it.

How the values were obtained:
[1] = test system: A375 human amelanotic melanoma tumour; test: Biodistribution in A375 melanoma tumour bearing mice; assay type: in vivo, BALB/c nude mice; conditions: for Organ distribution Intestine / Organ distribution Liver / Organ distribution Spleen / Organ distribution Stomach / Organ distribution Thyroid / Organ distribution Tumour: mean ± S.D.
Procedure: Animal experiments were performed in compliance with the NHMRC Australian Code of Practice for the care and use of animals for scientific purposes. Female C57BL/6J black and BALB/c nude albino mice of 5 weeks age were obtained from the Animal Resources Centre, Western Australia. B16F0 murine melanoma cells were originally obtained from European Collection of Cell Cultures (UK) and A375 human amelanotic melanoma cells were originally obtained from American Type Culture Collection (USA). Before transplantation, B16F0 and A375 melanoma cells were maintained as a monolayer in RPMI culture medium supplemented with 10% foetal calf serum and antibiotics and passaged with trypsinisation. Early passages were frozen and stored in liquid nitrogen. Cells were passaged to P=10 and then discarded. Frozen aliquots were grown in a monolayer culture to between 80-95% confluence and for transplantation were trypsinised and washed with Ca^2+ and Mg^2+ free phosphate buffered saline (PBS). For inoculation, B16F0 melanoma cells were resuspended in Ca^2+ and Mg^2+ free PBS at 3 or 5×10^6 viable cells per ml and 0.1 ml was subcutaneously injected at the left flank of 6-7 weeks old C57BL/6J mice. Eleven days later, tumours could be palpated in >98% of inoculated animals. A375 human melanoma cells were resuspended at 1×10^7 viablecells per ml and 0.1 ml was injected subcutaneously at the left flank of 6 weeks old BALB/c nude mice and 25-26 days later tumours could be palpated with ˜60% of inoculated animals developing tumours.
Eleven days (B16F0 melanoma) and 25 days (A375 human melanoma) after tumour transplantation, the [^18F]nicotinamides (0.5-1.5 MBq, 100 μl) and [^123I]nicotinamide (0.37-0.74 MBq, 100 μl) derivatives were injected intravenously via the tail vein into mice (15-18 g). Time points of 1, 3, 6, 24, 48, 72 h after injection were chosen for determining the distribution of each compound in various organs and tissues for the iodine-123 labelled compounds and between 15 min and 6 hours (e.g. 15 min, 30 min, 1 h, 2 h, 4 h or 6 h) were chosen for the ^18F-labelled compounds. At defined times post injection, groups of mice (n=5) were weighed, sacrificed by CO2 administration followed by cervical dislocation and dissected. Selected organs were weighed and their radioactivity measured with a γ-counter. The remaining activity in the carcass was also determined in order to obtain the total activity in the mouse at defined time points. The fraction of injected activity (% ID) in the organ was calculated by comparison with suitable dilutions of the injected dose. Then, the radioactivity concentration in the organ (% ID/g) was found by dividing the % ID for each organ by the weight of the organ.

[2] = HPLC metabolite analysis in plasma, tumour, eye and urine; assay type: in vivo; conditions: for Percentage Unchanged Tracer: HPLC
[3] = A375 tumour, BALB/c nude mice, 1 h, n = 5
[4] = A375 tumour, BALB/c nude mice, 1 h, mean ± SD, n = 5
[5] = A375 tumour, BALB/c nude mice, 6 h, n = 5
[6] = A375 tumour, BALB/c nude mice, 6 h, mean ± SD, n = 5
[7] = A375 tumour, BALB/c nude mice, 24 h, n = 5
[8] = A375 tumour, BALB/c nude mice, 24 h, mean ± SD, n = 5
[9] = A375 tumour bearing mice, 30 min

tumour standardized uptake value (SUVt) ([1]; A375 tumour, BALB/c nude mice, 1 h): 0.7 ± 0.1
Organ distribution Intestine [1, 3]: 14 ± 2 % ID/organ
Organ distribution Liver [1, 3]: 2.3 ± 0.2 % ID/organ
Organ distribution Spleen [1, 3]: 0.16 ± 0.01 % ID/organ
Organ distribution Stomach [1, 3]: 1.6 ± 0.2 % ID/organ
Organ distribution Thyroid [1, 3]: 0.40 ± 0.07 % ID/organ
Organ distribution Tumour [1, 3]: 0.40 ± 0.16 % ID/organ
Uptake Lung [1, 4]: 1.56 ± 0.2 % ID/g
uptake BLOOD [1, 4]: 1.4 ± 0.2 % ID/g
uptake BRAIN [1, 4]: 0.14 ± 0.02 % ID/g
uptake HEART [1, 4]: 0.8 ± 0.1 % ID/g
uptake KIDNEY [1, 4]: 1.9 ± 0.3 % ID/g
uptake LIVER [1, 4]: 2.2 ± 0.4 % ID/g
uptake TUMOUR [1, 4]: 1.2 ± 0.2 % ID/g
tumour standardized uptake value (SUVt) ([1]; A375 tumour, BALB/c nude mice, 6 h): 0.9 ± 0.2
Organ distribution Intestine [1, 5]: 2 ± 1 % ID/organ
Organ distribution Liver [1, 5]: 0.7 ± 0.2 % ID/organ
Organ distribution Spleen [1, 5]: 0.03 ± 0.01 % ID/organ
Organ distribution Stomach [1, 5]: 0.4 ± 0.1 % ID/organ
Organ distribution Thyroid [1, 5]: 1.0 ± 0.5 % ID/organ
Organ distribution Tumour [1, 5]: 0.13 ± 0.06 % ID/organ
Uptake Lung [1, 6]: 0.4 ± 0.2 % ID/g
uptake BLOOD [1, 6]: 0.5 ± 0.2 % ID/g
uptake BRAIN [1, 6]: 0.03 ± 0.01 % ID/g
uptake HEART [1, 6]: 0.18 ± 0.07 % ID/g
uptake KIDNEY [1, 6]: 0.47 ± 0.17 % ID/g
uptake LIVER [1, 6]: 0.7 ± 0.3 % ID/g
uptake TUMOUR [1, 6]: 0.4 ± 0.1 % ID/g
tumour standardized uptake value (SUVt) ([1]; A375 tumour, BALB/c nude mice, 24 h): 0.3 ± 0.1
Organ distribution Intestine [1, 7]: 0.04 ± 0.01 % ID/organ
Organ distribution Liver [1, 7]: 0.09 ± 0.02 % ID/organ
Organ distribution Spleen [1, 7]: 0.002 % ID/organ
Organ distribution Stomach [1, 7]: 0.01 ± 0.00 % ID/organ
Organ distribution Thyroid [1, 7]: 1.4 ± 0.8 % ID/organ
Organ distribution Tumour [1, 7]: 0.001 % ID/organ
Uptake Lung [1, 8]: 0.015 ± 0.004 % ID/g
uptake BLOOD [1, 8]: 0.013 ± 0.002 % ID/g
uptake BRAIN [1, 8]: 0.002 ± 0.001 % ID/g
uptake HEART [1, 8]: 0.012 ± 0.003 % ID/g
uptake KIDNEY [1, 8]: 0.013 ± 0.002 % ID/g
uptake LIVER [1, 8]: 0.08 ± 0.02 % ID/g
uptake TUMOUR [1, 8]: 0.007 ± 0.002 % ID/g
Structure (SMILES): CCN(CC)CCNC(=O)c1cncc(I)c1 [[^123I]11, N-(2-(diethylamino)ethyl)-5-iodonicotinamide]

Percentage Unchanged Tracer ([2]; Eye, 15 minutes): 100%
Percentage Unchanged Tracer ([2]; Eye, 60 minutes): 96%
Percentage Unchanged Tracer ([2]; Eye, 120 minutes): 99%
form of activity taken up in the tumour and eye ([2]; HPLC analysis at various time points): unchanged [^18F]MEL2 and not metabolites
Percentage Unchanged Tracer ([2]; Plasma, 15 minutes): 85%
Percentage Unchanged Tracer ([2]; Plasma, 60 minutes): 79%
Percentage Unchanged Tracer ([2]; Plasma, 120 minutes): 63%
Percentage Unchanged Tracer ([2]; Tumour, 15 minutes): 100%
Percentage Unchanged Tracer ([2]; Tumour, 60 minutes): 100%
Percentage Unchanged Tracer ([2]; Tumour, 120 minutes): 98%
Percentage Unchanged Tracer ([2]; Urine, 60 minutes): 90%
Percentage Unchanged Tracer ([2]; Urine, 120 minutes): 87%
uptake in tissue (tumour and eyes) ([1]; A375 amelanotic melanoma tumour bearing mice, three hour period): low uptake
uptake BLADDER [1, 9]: 8.937 % ID/g
uptake BLOOD [1, 9]: 1.323 % ID/g
uptake BONE [1, 9]: 1.912 % ID/g
uptake BRAIN [1, 9]: 1.831 % ID/g
uptake EYES [1, 9]: 1.704 % ID/g
uptake GIT [1, 9]: 3.432 % ID/g
uptake HEART [1, 9]: 1.898 % ID/g
uptake KIDNEY [1, 9]: 7.103 % ID/g
uptake LIVER [1, 9]: 6.820 % ID/g
uptake LUNGS [1, 9]: 2.836 % ID/g
uptake MUSCLE [1, 9]: 2.125 % ID/g
uptake SKIN [1, 9]: 2.521 % ID/g
uptake SPLEEN [1, 9]: 4.093 % ID/g
uptake STOMACH [1, 9]: 3.795 % ID/g
uptake THYROID [1, 9]: 2.745 % ID/g
uptake TUMOUR [1, 9]: 2.633 % ID/g
uptake URINE [1, 9]: 609.148 % ID/g
uptake BLADDER ([1]; A375 tumour bearing mice, 1 h): 3.717 % ID/g
uptake BLOOD ([1]; A375 tumour bearing mice, 1 h): 0.480 % ID/g
uptake BONE ([1]; A375 tumour bearing mice, 1 h): 0.863 % ID/g
uptake BRAIN ([1]; A375 tumour bearing mice, 1 h): 0.822 % ID/g
uptake EYES ([1]; A375 tumour bearing mice, 1 h): 0.626 % ID/g
uptake GIT ([1]; A375 tumour bearing mice, 1 h): 1.564 % ID/g
uptake HEART ([1]; A375 tumour bearing mice, 1 h): 0.604 % ID/g
uptake KIDNEY ([1]; A375 tumour bearing mice, 1 h): 2.032 % ID/g
uptake LIVER ([1]; A375 tumour bearing mice, 1 h): 2.670 % ID/g
uptake LUNGS ([1]; A375 tumour bearing mice, 1 h): 0.939 % ID/g
uptake MUSCLE ([1]; A375 tumour bearing mice, 1 h): 0.865 % ID/g
uptake SKIN ([1]; A375 tumour bearing mice, 1 h): 1.265 % ID/g
uptake SPLEEN ([1]; A375 tumour bearing mice, 1 h): 1.351 % ID/g
uptake STOMACH ([1]; A375 tumour bearing mice, 1 h): 1.899 % ID/g
uptake THYROID ([1]; A375 tumour bearing mice, 1 h): 1.162 % ID/g
uptake TUMOUR ([1]; A375 tumour bearing mice, 1 h): 0.920 % ID/g
uptake URINE ([1]; A375 tumour bearing mice, 1 h): 185.427 % ID/g
uptake BLADDER ([1]; A375 tumour bearing mice, 2 h): 4.835 % ID/g
uptake BLOOD ([1]; A375 tumour bearing mice, 2 h): 0.171 % ID/g
uptake BONE ([1]; A375 tumour bearing mice, 2 h): 0.548 % ID/g
uptake BRAIN ([1]; A375 tumour bearing mice, 2 h): 0.224 % ID/g
uptake EYES ([1]; A375 tumour bearing mice, 2 h): 0.238 % ID/g
uptake GIT ([1]; A375 tumour bearing mice, 2 h): 0.580 % ID/g
uptake HEART ([1]; A375 tumour bearing mice, 2 h): 0.205 % ID/g
uptake KIDNEY ([1]; A375 tumour bearing mice, 2 h): 0.650 % ID/g
uptake LIVER ([1]; A375 tumour bearing mice, 2 h): 0.985 % ID/g
uptake LUNGS ([1]; A375 tumour bearing mice, 2 h): 0.324 % ID/g
uptake MUSCLE ([1]; A375 tumour bearing mice, 2 h): 0.280 % ID/g
uptake SKIN ([1]; A375 tumour bearing mice, 2 h): 0.290 % ID/g
uptake SPLEEN ([1]; A375 tumour bearing mice, 2 h): 0.434 % ID/g
uptake STOMACH ([1]; A375 tumour bearing mice, 2 h): 0.748 % ID/g
uptake THYROID ([1]; A375 tumour bearing mice, 2 h): 0.356 % ID/g
uptake TUMOUR ([1]; A375 tumour bearing mice, 2 h): 0.254 % ID/g
uptake URINE ([1]; A375 tumour bearing mice, 2 h): 97.912 % ID/g
uptake BLADDER ([1]; A375 tumour bearing mice, 3 h): 0.360 % ID/g
uptake BLOOD ([1]; A375 tumour bearing mice, 3 h): 0.054 % ID/g
uptake BONE ([1]; A375 tumour bearing mice, 3 h): 0.443 % ID/g
uptake BRAIN ([1]; A375 tumour bearing mice, 3 h): 0.073 % ID/g
uptake EYES ([1]; A375 tumour bearing mice, 3 h): 0.110 % ID/g
uptake GIT ([1]; A375 tumour bearing mice, 3 h): 0.227 % ID/g
uptake HEART ([1]; A375 tumour bearing mice, 3 h): 0.045 % ID/g
uptake KIDNEY ([1]; A375 tumour bearing mice, 3 h): 0.197 % ID/g
uptake LIVER ([1]; A375 tumour bearing mice, 3 h): 0.323 % ID/g
uptake LUNGS ([1]; A375 tumour bearing mice, 3 h): 0.099 % ID/g
uptake MUSCLE ([1]; A375 tumour bearing mice, 3 h): 0.108 % ID/g
uptake SKIN ([1]; A375 tumour bearing mice, 3 h): 0.169 % ID/g
uptake SPLEEN ([1]; A375 tumour bearing mice, 3 h): 0.103 % ID/g
uptake STOMACH ([1]; A375 tumour bearing mice, 3 h): 0.302 % ID/g
uptake THYROID ([1]; A375 tumour bearing mice, 3 h): 0.128 % ID/g
uptake TUMOUR ([1]; A375 tumour bearing mice, 3 h): 0.096 % ID/g
uptake URINE ([1]; A375 tumour bearing mice, 3 h): 37.842 % ID/g
Structure (SMILES): CCN(CC)CCNC(=O)c1ccc(F)nc1 [[^18F]MEL2, 6-Fluoro-N-[2-(diethylamino)ethyl]nicotinamide]
form excreted in urine ([2]; HPLC analysis, all time points studied): excreted predominately as the unchanged radiotracer
